# Source: PMC8032764 (Scientific Reports, 2021)
# Columns and labels:
# [1] = system: T1, Neurokinin NK2; assay: Cerep binding; design: species or system human; details: 10 μM; [125I]NKA; hum. recomb. (CHO)
# T1 construct: purchased Eurofins Cerep
# [2] = system: Wistar rats; assay: Pentylenetetrazole (PTZ) test; assay type: in vivo, rat
# Method: PTZ was prepared in 0.9% saline and was administered s.c. in a volume of 1 mL/kg. The positive control FG7142, a non-selective GABAA receptor NAM, was prepared in 0.3% Tween 80 v/v saline and was administered i.p. in a volume of 1 mL/kg. […] During this period the number of rats showing tonic convulsions was noted.
# FG7142 was administered at 10 mg/kg 30 min prior to PTZ. The percent of rats in each dose group showing tonic convulsions was compared to the control group by the Pearson Chi-Square test.
# [3] = target: human GABAA α5β3γ2 (Homo sapiens, UniProt P18507+P31644); assay: Two-electrode voltage clamp in Xenopus oocytes, current induced by EC10 of GABA; assay type: cell-based; design: expressed in transfected cells; host or cells: Xenopus laevis oocytes, cRNA injection
# Method: Freshly prepared oocytes of maturation stage VI were bought from Ecocyte Bioscience (Castrop-Rauxel, Germany) and, after overnight delivery, plated into 96-well plates (Greiner no. 651101) for microinjection on a ROBOOCYTE R16 system (Multichannel Systems MCS GmbH, Reutlingen, Germany). Each oocyte was injected with roughly 50 nL of RNA solution. The solution for expressing receptors composed of the human α1, β2 and γ2 subunits contained 3 pg/nL of α1 and β2 RNA and 15 pg/nL of γ2 RNA. The solution for expressing human α2β3γ2 receptors contained 2.5 pg/nL of α2 and β3 RNA, 5 pg/nL of γ2 RNA and 10 pg/nL of GABARAP RNA. The solution for expressing human α3β3γ2 receptors contained 1.3 pg/nL of α3 and β3 RNA and 6.5 pg/nL of γ2 RNA. The solution for expressing human α5β3γ2 receptors contained 1.3 pg/nL of α5 and β3 RNA and 13 pg/nL of γ2 RNA. […] After the microinjection the oocytes were kept at 20 °C temperature until the electrophysiological experiment. Experiments were done 3 to 5 days later on the ROBOOCYTE instrument which employs the two-microelectrode voltage-clamp technique for membrane voltage control and current measurement. […] During current recording and compound testing the cell membrane was constantly clamped to − 80 mV. Current signals were recorded and stored on a PC-type computer using the ROBOOCYTE software.
# During the microinjection and up to the electrophysiological experiment the oocytes were kept in a solution containing 88 mM NaCl, 1 mM KCl, 2.5 mM NaHCO3, 10 mM HEPES (AppliChem GmbH, Darmstadt, Germany), 0.82 MgSO4, 0.33 mM Ca(NO3)2, 0.33 mM CaCl2, 100 U/mL penicillin (GIBCO, ThermoFisher Scientific) and 100 µg/mL streptomycine (GIBCO, ThermoFisher Scientific). The pH was adjusted to 7.5. During the experiment the voltage-clamped oocyte was constantly superfused by a solution containing 90 mM NaCl, 1 mM KCl, 5 mM HEPES (AppliChem), 1 mM MgCl2 and 1 mM CaCl2 (pH 7.4). GABA and test compounds were added to this solution. GABA concentrations were chosen according to previously determined concentration–response relations for the different human GABAA receptor subunit combinations. Concentrations evoking approximately 10% of a maximal response were selected, i.e., 8 µM for α1β2γ2, 6 µM for α2β3γ2, 10 µM for α3β3γ2 and 5 µM for α5β3γ2. Solutions containing GABA or test compounds were freshly prepared at least every second day. […] Compounds were further diluted in DMSO and finally in extracellular saline to reach a DMSO concentration of 0.1%. The same amount of DMSO was added to the control solutions without test compounds.
# During the experiment the solutions were fed into the well containing the voltage-clamped oocyte via Teflon tubings connected by electromagnetic valves which allowed rapid switching between different solutions (controlled by the ROBOCYTE software). Approximately 1–2 min after impaling an oocyte and switching to voltage-clamp mode GABA was applied for 90 s to record a control response. Thereafter the oocyte was washed with saline for 160 s followed by another 90 s GABA application. Then 30 s after the onset of the second GABA application the system switched to a solution containing GABA plus the test compound. Each oocyte was used for testing one concentration of a single test compound (for α5β3γ2: 1 nM: n = 8, 10 nM: n = 8, 100 nM: n = 7, 1000 nM: n = 7).
# In this case each GABA application lasted 110 s and the rest period between the two GABA applications was 190 s long.
# On each 96-well plate 3–6 oocytes were used for testing a known NAM at the BZD binding site, β-CCM (FG7106), as a positive control. […] Maximally effective concentrations of β-CCM were used for each subunit combination, i.e., 100 nM β-CCM for α1β2γ2, 300 nM for α2β3γ2 or α3β3γ2 and 1 µM for α5β3γ2.
# [4] = concentration–response curve, n = 7
# Sequence of human GABAA α5β3γ2 (P31644 32-462): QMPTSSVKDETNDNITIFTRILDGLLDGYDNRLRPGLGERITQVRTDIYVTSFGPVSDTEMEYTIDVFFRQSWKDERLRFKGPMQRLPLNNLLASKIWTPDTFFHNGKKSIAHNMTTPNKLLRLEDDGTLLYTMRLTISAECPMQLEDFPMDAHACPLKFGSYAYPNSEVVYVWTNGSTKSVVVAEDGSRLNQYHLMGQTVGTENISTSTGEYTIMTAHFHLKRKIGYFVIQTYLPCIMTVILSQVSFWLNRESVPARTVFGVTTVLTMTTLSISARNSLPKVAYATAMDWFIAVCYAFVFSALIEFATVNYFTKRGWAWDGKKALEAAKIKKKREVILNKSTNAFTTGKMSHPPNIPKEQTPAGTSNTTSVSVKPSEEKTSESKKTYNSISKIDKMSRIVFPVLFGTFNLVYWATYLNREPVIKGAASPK
# Sequence of human GABAA α5β3γ2 (P28472 26-473 partner): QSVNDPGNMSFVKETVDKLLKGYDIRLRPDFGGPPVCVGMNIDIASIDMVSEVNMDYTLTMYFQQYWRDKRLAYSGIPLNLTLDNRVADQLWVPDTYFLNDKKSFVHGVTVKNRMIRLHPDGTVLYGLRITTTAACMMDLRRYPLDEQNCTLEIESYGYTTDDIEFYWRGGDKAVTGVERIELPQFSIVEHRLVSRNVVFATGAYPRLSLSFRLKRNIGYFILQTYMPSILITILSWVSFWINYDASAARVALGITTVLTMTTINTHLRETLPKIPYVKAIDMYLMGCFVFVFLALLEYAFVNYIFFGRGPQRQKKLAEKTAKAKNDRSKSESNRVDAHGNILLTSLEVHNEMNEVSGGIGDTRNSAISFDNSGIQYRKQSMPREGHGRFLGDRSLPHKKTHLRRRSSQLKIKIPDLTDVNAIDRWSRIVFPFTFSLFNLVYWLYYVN
# Sequence of human GABAA α5β3γ2 (P18507 40-475): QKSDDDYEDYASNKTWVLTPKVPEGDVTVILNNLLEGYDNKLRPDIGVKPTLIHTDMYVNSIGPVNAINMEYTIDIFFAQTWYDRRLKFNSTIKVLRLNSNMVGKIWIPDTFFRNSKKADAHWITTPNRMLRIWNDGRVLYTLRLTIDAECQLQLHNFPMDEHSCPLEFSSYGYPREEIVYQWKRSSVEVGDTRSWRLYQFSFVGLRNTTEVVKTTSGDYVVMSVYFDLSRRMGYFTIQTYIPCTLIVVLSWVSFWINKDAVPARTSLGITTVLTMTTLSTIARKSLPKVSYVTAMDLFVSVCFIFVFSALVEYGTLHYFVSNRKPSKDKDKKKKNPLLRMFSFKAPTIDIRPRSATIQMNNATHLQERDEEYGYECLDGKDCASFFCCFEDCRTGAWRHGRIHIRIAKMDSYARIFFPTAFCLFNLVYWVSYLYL
compound,measurement,setting,value
Cc1onc(-c2ccc(F)cc2)c1COc1ccc(C(=O)N2CCS(=O)(=O)CC2)cn1 [basmisanil],% Inhibition,[1],7%
same,proconvulsant activity,"[2]; female rats, 30 mg/kg, 2 h prior to PTZ 70 mg/kg",did not exert proconvulsant activity
same,rats exhibiting tonic convulsions,"[2]; female rats, 100 mg/kg, threshold dose of PTZ, p < 0.05",five out of eight
same,"rats exhibiting tonic convulsions, compared with 100 mg/kg","[2]; female rats, 300 and 600 mg/kg, p < 0.05",identical effects
same,proconvulsant activity,"[2]; male rats, single doses up to 100 mg/kg, 1 h prior to PTZ 55 mg/kg",did not exert proconvulsant activity
same,decrease of GABA-induced current under co-treatment with flumazenil,[3]; 100 nM basmisanil + flumazenil 30 or 1000 nM,blocked by co-treatment with flumazenil
same,reduction of the GABA-evoked current,"[3]; 1 µM, highest concentration tested, 5 µM GABA",42 ± 1%
same,Hill slope,[3]; [4],0.9
same,IC50,[3]; [4],8 nM
